# Results as given in article PMC13298843, “Substituent size versus metal binding of inhibitors with variants of influenza endonuclease^” (Journal of inorganic biochemistry, 2025).
# How the values were obtained:
# Assay type in all cases: binding, influenza A/California/04/2009(H1N1)
# Settings in all cases: 200 µM
# [1] = target: E23K mutant PAN endonuclease (Influenza A virus, UniProt C3W5S0, DEL52-64/E23K/INS51G, form not given)
# WT PAN endonuclease = WT PAN endonuclease (Influenza A virus, UniProt C3W5S0, DEL52-64/INS51G, form not given)
# [2] = target: I38T mutant PAN endonuclease (Influenza A virus, UniProt C3W5S0, DEL52-64/I38T/INS51G, form not given)
smiles,measurement,setting,value
CSc1ccccc1-c1cc(=O)c(O)c(C(=O)O)[nH]1 [Compound 3],E23K ΔTm (thermal shift),[1],7.21 ± 0.15 °C
same,WT ΔTm (thermal shift),WT PAN endonuclease,10.89 ± 0.12 °C
same,I38T ΔTm (thermal shift),[2],10.86 ± 0.12 °C
